Laboratory results: US7723289B2, “PIF tetrapeptides” (BioIncept, LLC, priority 2003, dated 2010)
Like-named read-outs stand apart in the source and are kept apart here.

What was measured:
human lymphocytes = system: human lymphocytes
Procedure: Human PBMC were isolated and cultured for 2-4 days in AIM-V medium containing 0 to 200 nM of sPIF-115 (SEQ ID NO:13) or scrPIF-115 (SEQ ID NO:5). The following proliferation-activating agents were used: anti-CD3 antibody (10 μg/ml solution) bound on the plate wells in the presence or absence of IL-2 at 10 μg/ml; phytohemmaglutinin (PHA) at 4 μg/ml. The effects of sPIF-115 (SEQ ID NO:13) or scrPIF-115 (SEQ ID NO:5) peptides were also determined by the mixed lymphocyte reaction (MLR) after 3 days in heterologous cultures of PBMC with cells previously treated with mitomycin C (100 μg/ml for 4 h). Cell proliferation was determined by tritiated thymidine incorporation (16 h) of 72-h culture. Cytokine release (IL-4, IL-10, IFN-γ and TNF-α) into culture supernatants was determined at 72 h of culture by ELISA (R&D System).

PBMC = assay: PIF and analogues on release of cytokines +/- platebound mAbCD3 (Table 4); assay type: cell-based; set-up: IL-1β / TNFa / IL-4 / IL-5 / IL-6 / IL-10 / GM-CSM / IFN-g: unit not given here
[1] = system: THP1 a monocyte cell line; conditions: 1-100 nM, no mitogen
From the text: The effect of PIF-1 was examined on THP1 a monocyte cell line (Dr Sharma Brown Univ).

CD2 = CD2 expression in PBMC (flow cytometry, CD2MAb-FITC); assay type: cell-based; conditions: PBMC exposed 3 days
β-3 integrin = β-3 integrin expression by human endometrial epithelial cells (flow cytometry, immunocytochemistry); assay type: cell-based
Procedure: Human endometrial tissues were digested and stromal and epithelial cells (hEEC) isolated and cultured with a fetal bovine serum (FBS)-enriched medium until confluent layers were obtained. After that the cells were cultured for two more days in a FBS free-medium followed by a further 2-day culture in the same medium containing PIF peptides (1-500 nM).
(§1) In addition, to compare the recovery of β-3 integrin expression with PIF effects described after cultured hEEC in a free-fetal bovine serum (FBS) medium some cells were cultured again in FBS-medium. […] PIF binding to epithelial cells was also examined. Binding was examined using MaBCD2 staining.

epithelial cells = assay: PIF binding to endometrial epithelial cells (MaBCD2 staining); set-up: species or system human; conditions: compared to non-relevant IgG
Procedure: as §1

mice = assay: Subcutaneous osmotic mini-pump administration in mated mice, implantation sites; assay type: in vivo
Procedure: Preliminary in vivo assessment of PIF-1 antagonist by using PIF1scr/amide was performed. […] Following the protocol below: (Dr Hoberman, Argus, Inc) PIF-1scr/amide was introduced two days after estrus to mice through an osmotic mini-pump (Alzet Model 2001; 1 ul/hr for 7 days) containing either 0.9% saline or 150 ug or 800 ug PIF-1scr/amide/day release in saline. The pumps were inserted subcutaneously under ketamine/xylazine anesthesia. Female mice were placed with male mice on the third day afternoon of the expected estrus. Four different groups 5 each were studied, low and high dose PIF-1scr/amide, saline control, and one group with PIF-1. Mating was confirmed by the presence of sperm in the vagina or a copulatory plug the next morning. Pregnancy (or lack thereof) was determined by sacrificing on day 10 after breeding and the uterine horns were examined for implantation sites by using Chicago Blue solution.
The group treated with PIF-1 160 ug/kg/day appeared to have increased number of implantation sites and this was associated with a higher rate of fetal survival compared to vehicle treated controls.

[2] = 160 ug/kg/day, compared to vehicle treated controls

Procedure for 46 different kinases: The effect of PIF-1 on kinases related to metabolic function was examined. The methodology for testing PIF activity on MEK1 kinase is described below, but it is applicable for all kinases tested: 50 nM Tris pH, 0.1 mM EGTA 0.10% b-mercaptoethanol 1 mg/mg BSA PIF-1 15 was dissolved in deionised water at 5 nM-5 uM range of concentrations. […] (SEQ ID NO: 23), 10 mM Mg Acetate and [gamma-33P-ATP] 500 cpm/pmol. Reaction initiated with addition of MgATP. After 40 minutes incubation at room temperature, reaction stopped by the addition of 5 ul of a 3% phosphoric acid solution. 10 ul of the reaction is spotted onto a P30 filtermat and washed three times for 5 min in 75 mM phosphoric acid and once in methanol prior to drying and scintillation counting.
The effects of PIF on 46 different kinases (listed below in Table 5) related to metabolic function were tested.
Procedure for T cells: We have examined using calcium mobilization in T cells which is central to T-Cell activation initiated by antigen presentation to the T-Cell Receptor (TCR) antigen whether PIF-1 acts through mobilization of Ca++flux. Activation of T-cells was carried out by using phorbal ester (PMA) and Ca2+ ionomycin both of which synergize through two different signaling pathways the former through Protein Kinase C, while the later through Tyrosine Kinases. […] We have also looked at Tcell activation using PHA.
Calcium channel analysis method: 2E6 freshly isolated PBMC in RPMI1640+10% FBS (HI) and equilibrated for 24 hours. Cells are loaded with a proprietary dye that fluorescence when bound with Ca++. PIF-11 or 50 nM as well as 1-50 nM scrPIF-1 were added prior to inducing the cells with PMA/ionomycin or PHA20 ug/ml or vehicle 0.005% DMSO. PIF-1 treated cells are loaded into the Flexstation and the inducer is added robotically with a liquid handler. At a precise time fluorescence monitoring commences. CA++ mobilization involves initially at least sequestered within organelles to the cytoplasm where it binds with the dye and produces a fluorescent signal.

For MVRIKPGSANKPSDD [sPIF-1(15)], the “concentration at which lower rates of lymphocyte proliferation was found” value (“concentration at which lower rates” for short) (human lymphocytes; MLR) was 1 nM, the “concentration at which lower rates” value (human lymphocytes; PHA stimulated) was 250 nM and the “concentration at which lower rates” value (human lymphocytes; anti-CD3 antibody stimulated) was 62.5 nM. The GM-CSM (PBMC; C- (platebound mAbCD3), /1) was 20.7, the IFN-g (PBMC; C- (platebound mAbCD3), /1) was 122.6 and the IL-1β (PBMC; C- (platebound mAbCD3), /1) was 3.4. For the same sequence, the IL-2 (PBMC; C- (platebound mAbCD3), /1) was 21.4, the IL-4 (PBMC; C- (platebound mAbCD3), /1) was 17.2 and the IL-5 (PBMC; C- (platebound mAbCD3), /1) was 0. The IL-6 (PBMC; C- (platebound mAbCD3), /1) was 204.2, the IL-8 (PBMC; C- (platebound mAbCD3), /1) was >5000 and the IL-10 (PBMC; C- (platebound mAbCD3), /1) was 72.9. The TNFa (PBMC; C- (platebound mAbCD3), /1) was 135.7, the GM-CSM (PBMC; C- (platebound mAbCD3), /50) was 29.1 and the IFN-g (PBMC; C- (platebound mAbCD3), /50) was 130.3. It also gave an IL-1β (PBMC; C- (platebound mAbCD3), /50) of 4.4, an IL-2 (PBMC; C- (platebound mAbCD3), /50) of 31.0 and an IL-4 (PBMC; C- (platebound mAbCD3), /50) of 17.9. The IL-5 (PBMC; C- (platebound mAbCD3), /50) was 0, the IL-6 (PBMC; C- (platebound mAbCD3), /50) was 287.7 and the IL-8 (PBMC; C- (platebound mAbCD3), /50) was >5000. It also gave an IL-10 (PBMC; C- (platebound mAbCD3), /50) of 77.0, a TNFa (PBMC; C- (platebound mAbCD3), /50) of 223.5 and a GM-CSM (PBMC; U- (no mAbCD3), /1) of 12.5. The IFN-g (PBMC; U- (no mAbCD3), /1) was 0, the IL-1β (PBMC; U- (no mAbCD3), /1) was 0 and the IL-2 (PBMC; U- (no mAbCD3), /1) was 19.9. The IL-4 (PBMC; U- (no mAbCD3), /1) was 0, the IL-5 (PBMC; U- (no mAbCD3), /1) was 0 and the IL-6 (PBMC; U- (no mAbCD3), /1) was 32.2. For the same sequence, the IL-8 (PBMC; U- (no mAbCD3), /1) was 963.0, the IL-10 (PBMC; U- (no mAbCD3), /1) was 0 and the TNFa (PBMC; U- (no mAbCD3), /1) was 0. For the same sequence, the GM-CSM (PBMC; U- (no mAbCD3), /50) was 0, the IFN-g (PBMC; U- (no mAbCD3), /50) was 0 and the IL-1β (PBMC; U- (no mAbCD3), /50) was 0. For the same sequence, the IL-2 (PBMC; U- (no mAbCD3), /50) was 0, the IL-4 (PBMC; U- (no mAbCD3), /50) was 0 and the IL-5 (PBMC; U- (no mAbCD3), /50) was 0. For the same sequence, the IL-6 (PBMC; U- (no mAbCD3), /50) was 37.8, the IL-8 (PBMC; U- (no mAbCD3), /50) was 1426.7 and the IL-10 (PBMC; U- (no mAbCD3), /50) was 0. The TNFa (PBMC; U- (no mAbCD3), /50) was 0, the IL10 secretion [1] was “dose dependent increase” and the “increase in CD2 expression” value (CD2) was 170-200%. For the same sequence, the “increase in the expression of β-3-epithelial integrin” value (β-3 integrin; hEEC, 2-day culture, 1-500 nM) was “up to a four-fold increase”, the “interaction with cultures of human endometrial stromal cells” value (β-3 integrin; stromal cells) was “did not interact” and the “binding to epithelial cells” value (epithelial cells) was “highest binding”. The “number of implantation sites” value (mice; [2]) was “increased”, the “rate of fetal survival” value (mice; [2]) was “higher rate” and the “effect on maternal body weights” value (mice; all tested groups) was “no effect”. For the same sequence, the “effect on mouse fetuses number” value (mice; early pregnancy) was “no significant effect”, the “toxic effects following administration in early pregnancy” value (mice; pregnant mice) was “no toxic effects” and the “interaction with kinases related to metabolic function” value (46 different kinases) was “does not interact with any of kinases”. The “PHA stimulation of Ca2+ influx” value (T cells; PHA activated T cells) was “does not show any inhibition” and the “Ca++ mobilization” value (T cells; PMA and ionomycin activated T-cells, 1 nM-50 uM) was “did not affect”.
